Active and inactive are the calls of the source.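 How the source made its calls: active means IC50 of 15 µM or lower, and residual activity at the IC50 concentration no higher than 60%; inactive means the rest.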 Bounds are passed on as bounds.

The results in this text go back to PubChem BioAssay AID1068 (Emory University Molecular Libraries Screening Center, 2008).

The target of the test is Ubiquitin carboxyl-terminal hydrolase BAP1 (Homo sapiens) (UniProt Q92560). Nature of the test: BAP1 inhibitor potency with two substrates, dose response, biochemical, Ub-AMC versus Ub-rhodamine substrates (AID 1068). To be noted: recombinant BAP1, Ub-rhodamine hydrolysis fluorescence.
Sequence of Ubiquitin carboxyl-terminal hydrolase BAP1 (Homo sapiens) (Q92560 whole entry, looked up): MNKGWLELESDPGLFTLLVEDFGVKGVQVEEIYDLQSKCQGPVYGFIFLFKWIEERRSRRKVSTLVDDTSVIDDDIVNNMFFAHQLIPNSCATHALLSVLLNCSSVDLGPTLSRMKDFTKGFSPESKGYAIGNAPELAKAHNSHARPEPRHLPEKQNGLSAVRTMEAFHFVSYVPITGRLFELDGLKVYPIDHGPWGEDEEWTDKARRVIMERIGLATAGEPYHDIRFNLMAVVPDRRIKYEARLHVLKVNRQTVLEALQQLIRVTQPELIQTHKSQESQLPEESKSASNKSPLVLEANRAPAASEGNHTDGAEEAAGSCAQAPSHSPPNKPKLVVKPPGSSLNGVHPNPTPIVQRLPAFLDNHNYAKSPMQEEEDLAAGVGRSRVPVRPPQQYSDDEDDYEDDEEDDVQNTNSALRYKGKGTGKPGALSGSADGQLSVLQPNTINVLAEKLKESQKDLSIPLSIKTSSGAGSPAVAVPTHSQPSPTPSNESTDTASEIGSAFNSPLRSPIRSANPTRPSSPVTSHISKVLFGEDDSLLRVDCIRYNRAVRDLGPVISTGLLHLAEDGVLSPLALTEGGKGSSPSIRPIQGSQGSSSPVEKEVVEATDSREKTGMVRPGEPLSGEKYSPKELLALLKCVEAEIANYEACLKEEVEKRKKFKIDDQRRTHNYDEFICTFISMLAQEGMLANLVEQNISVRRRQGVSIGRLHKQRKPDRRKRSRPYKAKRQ
Setting [1] is: measured here: Ub-AMC substrate assay.

For `O=C(NCc1ccco1)c1cc2nc(-c3ccc4c(c3)OCO4)cc(C(F)(F)F)n2n1`, the IC50 result was “inactive”. Besides, the IC50 under setting [1] is more than 100 µM.
As to `O=C(Nc1cccc(O)c1)c1ccccc1-c1nc(-c2cccc(Cl)c2)no1`, the IC50 result is “inactive”. Also, under setting [1], the IC50 was 27.1 µM.
On the same counts, the results for `Cc1cccc2cc(C(c3nnnn3C(C)(C)C)N3CCN(C(=O)c4ccco4)CC3)c(=O)[nH]c12` (stereo not drawn) are < 0.78 µM (inactive) and 55.7 µM.
For `Cc1sc(NC(=O)CSc2nnc(-c3ccc(Cl)cc3)o2)c(C#N)c1-c1ccc(F)cc1` the same measures were 5.51 µM and more than 100 µM.
On the same counts, the results for `Cc1sc(NC(=O)CSc2nnc(-c3ccc(Cl)cc3)o2)c(C#N)c1C` are 9.54 µM and 37.4 µM.
Take `Cc1ccc(-c2c(C)sc(NC(=O)CSc3nnc(-c4ccc(F)cc4)o3)c2C#N)cc1C`: the IC50 is 10 µM. In addition, the half-maximal inhibitory concentration (IC50) under setting [1] was found to be 37 µM.
For `Cc1cccc2cc(C(C#N)N3CCN(C(=O)OC(C)(C)C)CC3)c(=O)[nH]c12` (stereo not drawn) the same measures were “inactive” and more than 100 µM.
Regarding `CCCc1cc(=O)[nH]c(SCC(=O)Nc2ccc(C(=O)OC)cc2)n1`, the outcome was inactive. The half-inhibitory concentration (IC50) under setting [1] was more than 100 µM.
In the case of `N#Cc1c(NC(=O)CSc2nnc(-c3ccc(F)cc3)o2)sc2c1CCCC2`, the IC50 result was “inactive”. The half-maximal inhibitory concentration (IC50) under setting [1] came out at 41.7 µM.
On to `COc1ccccc1NC(=O)c1ccccc1-c1nc(-c2ccc(Cl)cc2)no1`, for which the IC50 entry was “inactive”. Moreover, the IC50 under setting [1] was found to be 40.1 µM.
For `N#Cc1c(NC(=O)CSc2nnc(-c3ccc(Cl)cc3)o2)sc2c1CCCC2` the same measures were “inactive” and more than 100 µM.
For `COC(=O)c1ccc(NC(=O)CSc2nc(C)cc(=O)[nH]2)cc1`, the outcome was inactive. Moreover, under setting [1], the half-inhibitory concentration (IC50) is more than 100 µM.
On to `Cc1sc(NC(=O)CSc2n[nH]c(-c3ccc(O)cc3)n2)c(C#N)c1-c1ccc(F)cc1`, for which the IC50 is 9.11 µM. In addition, the IC50 under setting [1] was determined as 15.3 µM.
For `Cc1cccc2cc(C(c3nnnn3C(C)(C)C)N3CCN(C(=O)OC(C)(C)C)CC3)c(=O)[nH]c12` (stereo not drawn), the IC50 was > 100 µM (inactive). For the same molecule, under setting [1], the concentration for half-maximal inhibition (IC50) is more than 100 µM.
For `Cc1oc(NC(=O)CSc2n[nH]c(-c3ccc(F)cc3)n2)c(C#N)c1C` the same measures were > 100 µM (inactive) and 46.5 µM.
On the same counts, the results for `O=C(O)c1ccccc1-c1nc(-c2ccc(Cl)cc2)no1` are “inactive” and 1.31 µM.
For `O=C(O)c1ccccc1-c1nc(-c2cccc(Cl)c2)no1` the same measures were > 100 µM (inactive) and 58.8 µM.
With `CCc1cc(=O)[nH]c(SCC(=O)Nc2ccc(C(=O)OC)cc2)n1`, the result was inactive. Besides, the half-maximal inhibitory concentration (IC50) under setting [1] was more than 100 µM.
For the molecule `O=C(NCc1cccs1)c1cc2nc(-c3ccc4c(c3)OCO4)cc(C(F)(F)F)n2n1`, the IC50 result is “inactive”. The concentration for half-maximal inhibition (IC50) under setting [1] stood at 44.7 µM.
As for `Cc1cccc2cc(C(c3nnnn3C(C)(C)C)N3CCNCC3)c(=O)[nH]c12` (stereo not drawn), the IC50 result is “inactive”. Further, the IC50 under setting [1] was more than 100 µM.
On to `Cc1cccc2cc(C(C#N)N3CCNCC3)c(=O)[nH]c12` (stereo not drawn), for which the IC50 entry is “inactive”. Under setting [1], the IC50 was found to be 1.55 µM.
Regarding `COc1cccc(NC(=O)c2ccccc2-c2nc(-c3cccc(Cl)c3)no2)c1`, the IC50 entry is “inactive”. Further, the IC50 under setting [1] worked out at 37.5 µM.
On the same counts, the results for `COc1cccc(NC(=O)c2ccccc2-c2nc(-c3ccc(Cl)cc3)no2)c1` are “inactive” and 39.9 µM.
With `Cc1ccc(-c2c(C)sc(NC(=O)CSc3nnc(-c4ccccc4)o3)c2C#N)cc1C`, the IC50 entry is “inactive”. Further, under setting [1], the half-maximal inhibitory concentration (IC50) turned out to be 69.8 µM.
In the case of `COc1cc(-c2nnc(SCC(=O)Nc3sc(C)c(C)c3C#N)o2)cc(OC)c1OC`, the outcome was inactive. For the same molecule, under setting [1], the IC50 is 2.32 µM.
For `Cc1sc(NC(=O)CSc2nnc(-c3ccccc3)o2)c(C#N)c1-c1ccc(F)cc1`, the IC50 was 12.5 µM. Further, the half-maximal inhibitory concentration (IC50) under setting [1] stood at 32.1 µM.
On the same counts, the results for `Cc1sc(NC(=O)CSc2nnc(-c3ccc(F)cc3)o2)c(C#N)c1C` are “inactive” and 99.7 µM.
For `Cc1ccc(-c2c(C)sc(NC(=O)CSc3nnc(-c4ccc(Cl)cc4)o3)c2C#N)cc1C` the same measures were 13.5 µM and 32.6 µM.
As for `Cc1cccc2cc(C(c3nn[nH]n3)N3CCN(C(=O)OC(C)(C)C)CC3)c(=O)[nH]c12` (stereo not drawn), the IC50 is > 100 µM (inactive). In addition, the IC50 under setting [1] is 38.9 µM.
Regarding `CCc1ccc(NC(=O)CSc2nc(C)cc(=O)[nH]2)cc1`, the result was inactive. Also, under setting [1], the IC50 worked out at 5.62 µM.
Regarding `Cc1sc(NC(=O)CSc2nnc(-c3ccccc3)o2)c(C#N)c1C`, the IC50 result is “inactive”. For the same molecule, under setting [1], the IC50 turned out to be 47.8 µM.
On the same counts, the results for `COc1cc(-c2nnc(SCC(=O)Nc3sc(C)c(-c4ccc(F)cc4)c3C#N)o2)cc(OC)c1OC` are “inactive” and 39.6 µM.
As for `O=C(NCc1ccccn1)c1cc2nc(-c3ccc4c(c3)OCO4)cc(C(F)(F)F)n2n1`, the result was inactive. For the same molecule, the IC50 under setting [1] was more than 100 µM.
On the same counts, the results for `Cc1sc(NC(=O)CSc2nc3ncnc(N)c3[nH]2)c(C#N)c1C` are “inactive” and more than 100 µM.

By IC50 is commonly meant the midpoint of a concentration-inhibition curve.
